The values that follow come from patent publication US11434198B2, “Compounds and methods for the treatment of neurodegenerative diseases” (Resilio Therapeutics, LLC, priority 2016, dated 2022).

The series is described as follows: pH stability of prodrugs of DFMO in PBS buffer. The following applies: for intact prodrug lost over the next 24 hours: 24 hours following the initial phase; for decrease in the amount of intact, non-degraded prodrug over the first hour of incubation: LC/MS/MS. Type of series: physicochemical. How it is done:
The stability of prodrugs of DFMO to different pH conditions over time was assayed. Prodrugs were reconstituted in dimethylsulfoxide (DMSO), diluted into phosphate buffered saline (PBS) of different pH values, incubated for different lengths of time at room temperature, and then analyzed by LC/MS/MS for changes in the levels of each prodrug. […] Following this initial phase, the (2)-prodrug was reasonably stable over the next 24 hours so that less than 20% of the intact prodrug was lost at pH 3 and 5, and about 60% of the intact material was lost at pH 8 over a day. […] Similar results were obtained with the other prodrugs tested.

The structures appear in SMILES notation.

On to `CC(OC(=O)NCCCC(N)(C(=O)O)C(F)F)OC(=O)C(C)C` (stereo not shown) [(2)-prodrug, 2-amino-2-(difluoromethyl)-5-[1-(2-methylpropanoyloxy)ethoxycarbonylamino]pentanoic acid], for which the “stability of intact, non-degraded prodrug over time at different pH (in words)” value (PBS of different pH values, room temperature) is listed as “slowly lost”. Moreover, the “intact prodrug lost over the next 24 hours” value is listed as “less than 20%” (PBS pH 3, room temperature); “less than 20%” (PBS pH 5, room temperature); “about 60%” (PBS pH 8, room temperature). In addition, the “decrease in the amount of intact, non-degraded prodrug over the first hour of incubation” value reads like this: (PBS pH 3, room temperature) “about 60%”; (PBS pH 5, room temperature) 30-35%; (PBS pH 8, room temperature) 30-35%.
